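Grown in 96-well plates, cells were treated for 48 hours with each compound at five concentrations. Insufficient inhibition: endpoint recorded as highest concentration tested. TGI: concentration producing complete growth inhibition.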

Among the test systems are RXF 393 renal; SN12C renal; NCI-H226 lung; MALME-3M melanoma; MDA-N; BT-549 breast; RPMI-8226 leukemia; UACC-257 melanoma; TK-10 renal.
Common to all, as to assay: NCI tumour cell line growth inhibition, 48 h

As to `CC/C=C\C=C/C(=O)N/C=C/CCC`, the TGI in the assay on RXF 393 renal, with SN12C renal, with NCI-H226 lung, in the assay on MALME-3M melanoma, in the assay on MDA-N and in the assay with BT-549 breast was greater than 100 µM in each case. The TGI in the assay on RPMI-8226 leukemia, in the assay with UACC-257 melanoma and in the assay on TK-10 renal was greater than 100 µM each time.
In the case of `CN(Cc1cnc2nc(N)nc(N)c2n1)c1ccc(C(=O)NCCCC(=O)O)cc1`, the TGI with RXF 393 renal, with SN12C renal, in the assay with NCI-H226 lung, in the assay with MALME-3M melanoma, in the assay on MDA-N and in the assay on BT-549 breast was greater than 100 µM throughout. Further, the TGI in the assay with RPMI-8226 leukemia, in the assay with UACC-257 melanoma and in the assay on TK-10 renal was greater than 100 µM throughout.
In the case of `O=C(CCCn1ccnc1[N+](=O)[O-])NCCn1cnc([N+](=O)[O-])n1`, the TGI with RXF 393 renal, in the assay on SN12C renal, in the assay with NCI-H226 lung, in the assay with MALME-3M melanoma, in the assay with MDA-N and in the assay with BT-549 breast was greater than 100 µM in each case. The TGI in the assay on RPMI-8226 leukemia, in the assay with UACC-257 melanoma and with TK-10 renal was greater than 100 µM in each case.
Regarding `CN(C)NC1=NS(=O)(=O)c2cc3c(=O)n(C)[nH]c3cc2S1`, the TGI with RXF 393 renal, in the assay on SN12C renal, in the assay on NCI-H226 lung, with MALME-3M melanoma, in the assay on MDA-N and with BT-549 breast was greater than 10 µM each time. In addition, the TGI with RPMI-8226 leukemia, in the assay with UACC-257 melanoma and in the assay with TK-10 renal was greater than 10 µM in each case.
In the case of `NS(=O)(=O)c1ccc(NC(=O)c2ccc3nc4ccccc4c(Nc4ccc(S(N)(=O)=O)cc4)c3c2)cc1`, the TGI in the assay on RXF 393 renal, in the assay with SN12C renal, in the assay on NCI-H226 lung, in the assay with MALME-3M melanoma, with MDA-N and with BT-549 breast was greater than 100 µM each time. In addition, the TGI in the assay on RPMI-8226 leukemia, in the assay on UACC-257 melanoma and with TK-10 renal was greater than 100 µM throughout.
For the compound `COc1ccc(C=O)cc1OS(=O)(=O)C(F)(F)C(F)(F)C(F)(F)C(F)(F)F`, the TGI in the assay on RXF 393 renal is 59.8 µM; with SN12C renal, 97.5 µM; with NCI-H226 lung, greater than 100 µM; with MALME-3M melanoma it was greater than 69 µM; in the assay with MDA-N, 44.7 µM; in the assay with BT-549 breast, greater than 100 µM. The TGI in the assay with RPMI-8226 leukemia was 54.3 µM; in the assay with UACC-257 melanoma it was greater than 100 µM; in the assay on TK-10 renal, greater than 82.9 µM.
As to `CCOc1cc2c(cc1O)C(=O)C[C@@H]1[C@@H]2CC[C@]2(C)[C@@H](O)CC[C@@H]12`, the TGI with RXF 393 renal was greater than 100 µM; in the assay on SN12C renal, greater than 100 µM; in the assay with NCI-H226 lung, 17 µM; with MALME-3M melanoma, greater than 9.3 µM; with MDA-N it was 0.106 µM; in the assay on BT-549 breast, 28.9 µM. Besides, the TGI in the assay with RPMI-8226 leukemia was greater than 9.48 µM; with UACC-257 melanoma, greater than 100 µM; in the assay with TK-10 renal, greater than 100 µM.
For `CN1CCN(c2n[nH]c(=O)c3c2nnn3C2CCCCC2)CC1`, the TGI in the assay on RXF 393 renal, with SN12C renal, with NCI-H226 lung, with MALME-3M melanoma, with MDA-N and in the assay on BT-549 breast was greater than 100 µM each time. Also, the TGI in the assay on RPMI-8226 leukemia, in the assay with UACC-257 melanoma and with TK-10 renal was greater than 100 µM each time.
For the compound `O=C1N[C@H](C(=O)O)[C@@H](c2ccc(OCc3ccccc3)cc2)O1`, the TGI in the assay on RXF 393 renal is 32.1 µM; in the assay on SN12C renal, greater than 100 µM; in the assay on NCI-H226 lung, 55.7 µM; in the assay on MALME-3M melanoma, greater than 100 µM; in the assay on MDA-N, greater than 100 µM; in the assay on BT-549 breast, greater than 100 µM. Moreover, the TGI was greater than 100 µM in the assay on RPMI-8226 leukemia, greater than 100 µM in the assay with UACC-257 melanoma and 84.4 µM in the assay on TK-10 renal.
Take `Nc1ccc(C2SCC(=O)N2NS(=O)(=O)c2cccc(C(=O)O)c2)cc1` (stereo not drawn): the TGI in the assay with RXF 393 renal is greater than 100 µM; in the assay on SN12C renal, greater than 100 µM; in the assay on NCI-H226 lung, greater than 100 µM; with MALME-3M melanoma it was 55.7 µM; with MDA-N, greater than 100 µM; in the assay with BT-549 breast, greater than 100 µM. Besides, the TGI in the assay with RPMI-8226 leukemia, in the assay with UACC-257 melanoma and in the assay with TK-10 renal was greater than 100 µM in each case.
For `CC(C)C(=O)/C=C/c1c(Cl)cccc1Cl`, the TGI with RXF 393 renal amounted to 19 µM; with SN12C renal it was 13.6 µM; in the assay with NCI-H226 lung, 8.01 µM; with MALME-3M melanoma, 17.9 µM; in the assay with MDA-N, 11.8 µM; in the assay with BT-549 breast it was 9.81 µM. The TGI with RPMI-8226 leukemia is greater than 100 µM; with UACC-257 melanoma it was 20.5 µM; with TK-10 renal, 24.5 µM.
Take `Cn1c(=S)[nH]c(N)c(Cc2ccccc2)c1=O`: the TGI in the assay on RXF 393 renal, in the assay on SN12C renal, with NCI-H226 lung, with MALME-3M melanoma, with MDA-N and with BT-549 breast was greater than 100 µM each time. Besides, the TGI with RPMI-8226 leukemia, in the assay on UACC-257 melanoma and with TK-10 renal was greater than 100 µM throughout.
Consider `COC(=O)[C@H](Cc1ccccc1)NC(=O)N(CCNC(=O)OC(C)(C)C)c1ccccc1`, for which the TGI in the assay on RXF 393 renal, in the assay on SN12C renal, in the assay with NCI-H226 lung, in the assay on MALME-3M melanoma, in the assay with MDA-N and in the assay with BT-549 breast was greater than 100 µM in each case. The compound further returned a TGI in the assay with RPMI-8226 leukemia greater than 100 µM.
On to `COc1ccc2nc3cc(Cl)ccc3c(NCCCCCC(=O)NC(COc3ccc4ccc5cccnc5c4n3)COc3ccc4ccc5cccnc5c4n3)c2c1`, for which the TGI in the assay with RXF 393 renal was 39.3 µM; in the assay on SN12C renal it was 31.6 µM; in the assay with NCI-H226 lung, 35.1 µM; in the assay on MALME-3M melanoma, greater than 100 µM; with MDA-N, 45.7 µM; in the assay on BT-549 breast, 3.55 µM. Besides, the results for the TGI in the assay with RPMI-8226 leukemia, in the assay with UACC-257 melanoma and in the assay with TK-10 renal were 17.3 µM, 42.8 µM and 32 µM, respectively.
In the case of `CN(C)CC(C)(C)CN1c2ccccc2Sc2ccccc21`, the TGI was determined as 13 µM with RXF 393 renal; 25.9 µM with SN12C renal; 33.4 µM in the assay on NCI-H226 lung; 27.9 µM with MALME-3M melanoma; 28.2 µM in the assay on MDA-N; 27.6 µM with BT-549 breast. Also, the TGI turned out to be 35.8 µM with RPMI-8226 leukemia, 24.7 µM with UACC-257 melanoma and 26.9 µM in the assay on TK-10 renal.
